Holding throughout (assay type): in vivo, mouse
In assay [1] the test system is cecal ligation and puncture model (CLP) of sepsis-induced renal injury. Put plainly: Renal microcirculation after CLP by intravital video microscopy. Particulars: for capillary perfusion / RBC velocity / volumetric blood flow: 18 hours after CLP. As to the method: Control (sham) mice underwent surgery but not CLP. Fresh solutions of tRes were prepared in dimethyl sulfoxide as the vehicle (veh) and diluted in normal saline before use. Dextran and […] were administered to the penile vein to visualize the capillary vascular space and detect RNS generation, respectively. The left kidney was exposed by a flank incision and positioned on a glass stage with a fluorescent microscope equipped with an Axiocam HSm camera. Intravital Video Microscopy (IVVM) of 10 s intervals at 200× magnification were acquired from randomly selected, non-overlapping fields of view. Capillaries were randomly selected for the 10 sec videos and categorized as “continuous flow” where red blood cell (RBC) movement was continuous; “intermittent flow” where RBC movement stopped or reversed; or “no flow” where no RBC movement was detected as shown in FIG. 8. RBC velocity was calculated in continuously flowing capillaries by measuring the distance traveled by a single RBC over time, expressed in μm/s.

Assay [2] has as its system CLP or Control (Sham) mice. The experiment in a line: Mean arterial pressure and heart rate by biotelemetry. As to the method: Mean arterial pressure (MAP) and heart rate (HR) were monitored continuously in conscious mice using biotelemetry. Transmitters (Data Sciences International, Minneapolis Minn.) were implanted into the carotid artery under isoflurane anesthesia and the animals were allowed to recover for 48 h. Mice were re-anesthetized with isoflurane and received CLP or Control (Sham) surgery. Cardiovascular parameters were recorded for 10 s every 5 min.

The test system of assay [3] is CLP mice. The experiment in a line: Histology of renal tissue (PAS staining) after CLP. The note with it: two-dose regimen. An excerpt: Renal tissue was also stained with periodic acid-Schiff staining to show the amount of injury to the tissue. The periodic acid-Schiff (PAS) stained sections were scored in a blinded, semi-quantitative manner. For each animal, at least 10 high power (400×) fields were examined. […] Representative PAS-stained sections are shown in FIG. 15, panels (A)-(C) 200× magnification and the tissue scores are shown in (D). CLP caused mild morphological changes characterized by […], cast formation, vacuolization, and tubule dilation. These changes were prevented by the two-dose regimen of tRes.

Setting [4] is: at 6 hours after CLP, administration at 5.5 hours.
The mark [5] stands for this setting: CLP mice, 3, 10, or 30 mg/kg i.p. at 5.5 hours.

With `Oc1ccc(/C=C/c2cc(O)cc(O)c2)cc1` [tRes, trans-resveratrol], the capillary perfusion entry in assay [1] (10 mg/kg at 6 hours and second dose at 12 hours) is “prevented the change”. In assay [1] (additional dose at 12 hours), the RBC velocity result is reported as “complete restoration” and the volumetric blood flow result is “complete restoration”. Further, in assay [1] (single dose), the RBC velocity result was “did not improve” and the volumetric blood flow entry is recorded as “did not improve”. Besides, the capillary perfusion result in assay [1] (single dose 10 mg/kg at 6 hours) was “unable to maintain perfusion”. Further, in assay [1] (at 6 h after CLP), the “mean RBC velocity” value is “improved” and the “renal capillary volumetric blood flow” value is “improved”. In addition, in assay [1] (setting [4]), the “most efficacious dose for capillary perfusion” value is recorded as 10 mg/kg and the “renal cortical peritubular capillary perfusion” value is reported as “improved perfusion in a dose dependent manner”. For the same molecule, in assay [2] (setting [5]), the “heart rate (HR)” value was “no effect” and the “mean arterial pressure (MAP)” value was “no effect”. Besides, the “heart rate (HR)” value in assay [2] (Control (Sham) mice) was “slightly increase”. Further, in assay [3], the “CLP-induced morphological changes of renal tissue (PAS)” value is listed as “prevented”.

For the origin of these results see patent publication US9044491B2, “Method for improving blood flow using stilbenoid derivatives” (The Board of Trustees of the University of Arkansas, priority 2010, dated 2015).
